Measurements from article PMC4657098, “A Review of the Updated Pharmacophore for the Alpha 5 GABA(A) Benzodiazepine Receptor Model” (International Journal of Medicinal Chemistry, 2015).
“Also recorded” adds a separate entry of the source.

Assays:
[1] = target: KOR (Homo sapiens, UniProt P41145); test: PDSP receptor binding, KOR; settings: Case Western Reserve University, read-out: KOR Ki (secondary binding)
[2] = target: α2β3γ2 GABAA/BzR (Homo sapiens, UniProt P18507+P47869); test: Competition binding to HEK cell membranes, α2β3γ2; set-up: expressed in transfected cells; settings: Figure 5; read-out: Ki α2
[3] = system: mice; settings: cited from earlier work
[4] = target: T1, CB1 (Homo sapiens, UniProt P21554); test: PDSP receptor binding, CB1; settings: PDSP primary screen at 10 µM
T1 construct: purchased NIMH PDSP (Psychoactive Drug Screening Program, Roth lab, Case Western Reserve)

[5] = target: T2, 5ht2c (Homo sapiens, UniProt P28335); test: PDSP receptor binding, 5ht2c; settings: PDSP primary screen at 10 µM
T2 construct: purchased NIMH PDSP (Psychoactive Drug Screening Program, Roth lab, Case Western Reserve)

[6] = target: T3, α2B (Homo sapiens, UniProt P18089); test: PDSP receptor binding, α2B; settings: PDSP primary screen at 10 µM
T3 construct: purchased NIMH PDSP (Psychoactive Drug Screening Program, Roth lab, Case Western Reserve)

[7] = target: α3β3γ2 GABAA/BzR (Homo sapiens, UniProt P18507+P34903); test: Competition binding to HEK cell membranes, α3β3γ2; set-up: expressed in transfected cells; settings: Figure 5; read-out: Ki α3
[8] = target: T4, H4 (Homo sapiens, UniProt Q9H3N8); test: PDSP receptor binding, H4; settings: PDSP primary screen at 10 µM
T4 construct: purchased NIMH PDSP (Psychoactive Drug Screening Program, Roth lab, Case Western Reserve)

[9] = target: T5, 5ht1e (Homo sapiens, UniProt P28566); test: PDSP receptor binding, 5ht1e; settings: PDSP primary screen at 10 µM
T5 construct: purchased NIMH PDSP (Psychoactive Drug Screening Program, Roth lab, Case Western Reserve)

[10] = PDSP receptor binding, β1B; settings: PDSP primary screen at 10 µM
[11] = target: α6β3γ2 GABAA/BzR (Homo sapiens, UniProt P18507+Q16445); test: Competition binding to HEK cell membranes, α6β3γ2; set-up: expressed in transfected cells; settings: Figure 5; read-out: Ki α6
[12] = target: T6, α1A (Homo sapiens, UniProt P35348); test: PDSP receptor binding, α1A; settings: PDSP primary screen at 10 µM
T6 construct: purchased NIMH PDSP (Psychoactive Drug Screening Program, Roth lab, Case Western Reserve)

[13] = target: T7, 5ht1d (Homo sapiens, UniProt P28221); test: PDSP receptor binding, 5ht1d; settings: PDSP primary screen at 10 µM
T7 construct: purchased NIMH PDSP (Psychoactive Drug Screening Program, Roth lab, Case Western Reserve)

[14] = system: MDR; test: PDSP receptor binding, MDR; settings: PDSP primary screen at 10 µM
[15] = target: T8, D3 (Homo sapiens, UniProt P35462); test: PDSP receptor binding, D3; settings: PDSP primary screen at 10 µM
T8 construct: purchased NIMH PDSP (Psychoactive Drug Screening Program, Roth lab, Case Western Reserve)

[16] = target: T9, SERT (Homo sapiens, UniProt P31645); test: PDSP receptor binding, SERT; settings: PDSP primary screen at 10 µM
T9 construct: purchased NIMH PDSP (Psychoactive Drug Screening Program, Roth lab, Case Western Reserve)

[17] = target: T10, 5ht1b (Homo sapiens, UniProt P28222); test: PDSP receptor binding, 5ht1b; settings: PDSP primary screen at 10 µM
T10 construct: purchased NIMH PDSP (Psychoactive Drug Screening Program, Roth lab, Case Western Reserve)

[18] = system: mice; set-up: method as in earlier work; settings: cited from earlier work
[19] = target: T11, α2C (Homo sapiens, UniProt P18825); test: PDSP receptor binding, α2C; settings: PDSP primary screen at 10 µM
T11 construct: purchased NIMH PDSP (Psychoactive Drug Screening Program, Roth lab, Case Western Reserve)

[20] = target: T12, 5ht1a (Homo sapiens, UniProt P08908); test: PDSP receptor binding, 5ht1a; settings: PDSP primary screen at 10 µM
T12 construct: purchased NIMH PDSP (Psychoactive Drug Screening Program, Roth lab, Case Western Reserve)

[21] = system: σ2; test: PDSP receptor binding, σ2; settings: PDSP primary screen at 10 µM
[22] = target: T13, α2A (Homo sapiens, UniProt P08913); test: PDSP receptor binding, α2A; settings: PDSP primary screen at 10 µM
T13 construct: purchased NIMH PDSP (Psychoactive Drug Screening Program, Roth lab, Case Western Reserve)

[23] = target: T14, DAT (Homo sapiens, UniProt Q01959); test: PDSP receptor binding, DAT; settings: PDSP primary screen at 10 µM
T14 construct: purchased NIMH PDSP (Psychoactive Drug Screening Program, Roth lab, Case Western Reserve)

[24] = target: T15, M4 (Homo sapiens, UniProt P08173); test: PDSP receptor binding, M4; settings: PDSP primary screen at 10 µM
T15 construct: purchased NIMH PDSP (Psychoactive Drug Screening Program, Roth lab, Case Western Reserve)

[25] = target: T16, 5ht2a (Homo sapiens, UniProt P28223); test: PDSP receptor binding, 5ht2a; settings: PDSP primary screen at 10 µM
T16 construct: purchased NIMH PDSP (Psychoactive Drug Screening Program, Roth lab, Case Western Reserve)

[26] = target: T17, M2 (Homo sapiens, UniProt P08172); test: PDSP receptor binding, M2; settings: PDSP primary screen at 10 µM
T17 construct: purchased NIMH PDSP (Psychoactive Drug Screening Program, Roth lab, Case Western Reserve)

[27] = target: T18, CB2 (Homo sapiens, UniProt P34972); test: PDSP receptor binding, CB2; settings: PDSP primary screen at 10 µM
T18 construct: purchased NIMH PDSP (Psychoactive Drug Screening Program, Roth lab, Case Western Reserve)

## CCc1ccc2c(c1)C(=O)N(C)Cc1c(C(=O)OCCCOC(=O)c3ncn4c3CN(C)C(=O)c3cc(CC)ccc3-4)ncn1-2 [XLi-356 (10), 1,3-Bis(8-ethyl-5,6-dihydro-5-methyl-6-oxo-4H-imidazo[1,5a][1,4]benzodiazepine-3-carboxy) propyl diester]
[1]
  Ki: 6.12 µM
[2]
  Ki: 4.2 µM
[3]; 10 mg/kg, scopolamine 1 mg/kg
  freezing (contextual memory) after scopolamine: attenuated the impairment of memory
[3]; mice
  reversal of scopolamine induced memory deficits: potently reverse scopolamine induced memory deficits
[4]
  CB1 binding: ∗ (“∗” indicates “primary missed” (<50% inhibition at 10 µM))
[5]
  5ht2c binding: ∗ (“∗” indicates “primary missed” (<50% inhibition at 10 µM))
[6]
  α2B binding: ∗ (“∗” indicates “primary missed” (<50% inhibition at 10 µM))
[7]
  Ki: 8.55 µM
[8]
  H4 binding: ∗ (“∗” indicates “primary missed” (<50% inhibition at 10 µM))
[9]
  5ht1e binding: ∗ (“∗” indicates “primary missed” (<50% inhibition at 10 µM))
[10]
  β1B binding: ∗ (“∗” indicates “primary missed” (<50% inhibition at 10 µM))
[11]
  Ki: 5 µM
[12]
  α1A binding: ∗ (“∗” indicates “primary missed” (<50% inhibition at 10 µM))
[13]
  5ht1d binding: ∗ (“∗” indicates “primary missed” (<50% inhibition at 10 µM))
[14]
  MDR binding: ∗ (“∗” indicates “primary missed” (<50% inhibition at 10 µM))
[15]
  D3 binding: ∗ (“∗” indicates “primary missed” (<50% inhibition at 10 µM))
[16]
  SERT binding: ∗ (“∗” indicates “primary missed” (<50% inhibition at 10 µM))
[17]
  5ht1b binding: ∗ (“∗” indicates “primary missed” (<50% inhibition at 10 µM))
[18]
  audio cued fear conditioning: no activity; also recorded: not able to reverse
[19]
  α2C binding: ∗ (“∗” indicates “primary missed” (<50% inhibition at 10 µM))
[20]
  5ht1a binding: ∗ (“∗” indicates “primary missed” (<50% inhibition at 10 µM))
[21]
  σ2 binding: ∗ (“∗” indicates “primary missed” (<50% inhibition at 10 µM))
[22]
  α2A binding: ∗ (“∗” indicates “primary missed” (<50% inhibition at 10 µM))
[23]
  DAT binding: ∗ (“∗” indicates “primary missed” (<50% inhibition at 10 µM))
[24]
  M4 binding: ∗ (“∗” indicates “primary missed” (<50% inhibition at 10 µM))
[25]
  5ht2a binding: ∗ (“∗” indicates “primary missed” (<50% inhibition at 10 µM))
[26]
  M2 binding: ∗ (“∗” indicates “primary missed” (<50% inhibition at 10 µM))
[27]
  CB2 binding: ∗ (“∗” indicates “primary missed” (<50% inhibition at 10 µM))
